This is an account of results in patent US9422293B2 (priority 2006, dated 2016).

The test concerns the target rat TRPV1 (Rattus norvegicus (Rat), UniProt O35433). The conditions noted are these: read-out: Rat IC50.

The IC50 is the point on the concentration scale where inhibition reaches its midpoint.

Molecules are shown by their SMILES. Where a name gives a salt, the structure may show the parent alone. Read-outs that look alike come from different tables or passages of the source.

rat TRPV1, sequence (O35433 whole entry): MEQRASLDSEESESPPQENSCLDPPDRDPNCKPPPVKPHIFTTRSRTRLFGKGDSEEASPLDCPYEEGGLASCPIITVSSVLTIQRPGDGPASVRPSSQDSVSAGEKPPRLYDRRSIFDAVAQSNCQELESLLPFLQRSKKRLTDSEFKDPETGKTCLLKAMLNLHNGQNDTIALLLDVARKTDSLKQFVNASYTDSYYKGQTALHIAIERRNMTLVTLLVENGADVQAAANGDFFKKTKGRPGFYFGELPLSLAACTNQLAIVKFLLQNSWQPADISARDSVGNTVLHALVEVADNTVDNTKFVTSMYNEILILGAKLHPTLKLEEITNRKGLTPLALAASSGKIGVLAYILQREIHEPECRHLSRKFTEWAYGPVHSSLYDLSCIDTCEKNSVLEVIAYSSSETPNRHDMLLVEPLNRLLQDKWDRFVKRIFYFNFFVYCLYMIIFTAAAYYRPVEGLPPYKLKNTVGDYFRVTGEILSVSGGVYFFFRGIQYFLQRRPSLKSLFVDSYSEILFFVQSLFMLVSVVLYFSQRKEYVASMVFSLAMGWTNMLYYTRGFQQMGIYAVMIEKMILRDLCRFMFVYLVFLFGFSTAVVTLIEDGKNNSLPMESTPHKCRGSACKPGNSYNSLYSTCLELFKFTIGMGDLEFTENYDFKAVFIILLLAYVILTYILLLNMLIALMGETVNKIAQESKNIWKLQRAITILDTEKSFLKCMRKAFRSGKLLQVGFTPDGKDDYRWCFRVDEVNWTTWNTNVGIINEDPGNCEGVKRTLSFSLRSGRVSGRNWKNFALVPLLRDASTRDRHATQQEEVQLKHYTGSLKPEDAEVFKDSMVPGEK

In the case of `FC(F)(F)c1ccc(Nc2nc(-c3ccncc3)nc3c2CCN(c2ncccc2C(F)(F)F)CC3)nc1` [Example 190, 2-Pyridin-4-yl-7-[3-(trifluoromethyl)pyridin-2-yl]-N-[5-(trifluoromethyl)pyridin-2-yl]-6,7,8,9-tetrahydro-5H-pyrimido[4,5-d]azepin-4-amine trifluoroacetic acid salt], the IC50 stood at 1160 nM. As to `FC(F)(F)c1ccc(Nc2nc(-c3ccsc3)nc3c2CCN(c2ncccc2C(F)(F)F)CC3)cc1` [Example 150, 2-(3-Thienyl)-N-[4-(trifluoromethyl)phenyl]-7-[3-(trifluoromethyl)pyridin-2-yl]-6,7,8,9-tetrahydro-5H-pyrimido[4,5-d]azepin-4-amine], the IC50 turned out to be 200 nM.

With `FC(F)(F)c1ccc(Nc2nc(N3CCC3)nc3c2CCN(c2ncccc2C(F)(F)F)CC3)cc1Cl` [Example 231, 2-Azetidin-1-yl-N-[3-chloro-4-(trifluoromethyl)phenyl]-7-[3-(trifluoromethyl)pyridin-2-yl]-6,7,8,9-tetrahydro-5H-pyrimido[4,5-d]azepin-4-amine trifluoroacetic acid salt], the IC50 was found to be 100 nM. Consider `CN(C)c1nc2c(c(NC3Cc4ccccc4C3)n1)CCN(c1ncccc1C(F)(F)F)CC2` [Example 82B, N^4-Indan-2-yl-N^2,N^2-dimethyl-7-(3-trifluoromethyl-pyridin-2-yl)-6,7,8,9-tetrahydro-5H-pyrimido[4,5-d]azepine-2,4-diamine trifluoroacetic acid salt], for which the concentration for half-maximal inhibition (IC50) amounted to 2800 nM.

For `FC(F)(F)c1ccc(Nc2nc(SC3CCCCC3)nc3c2CCN(c2ncccc2C(F)(F)F)CC3)cc1` [Example 354, 2-(Cyclohexylsulfanyl)-N-[4-(trifluoromethyl)phenyl]-7-[3-(trifluoromethyl)pyridin-2-yl]-6,7,8,9-tetrahydro-5H-pyrimido[4,5-d]azepin-4-amine], the 50% inhibitory concentration (IC50) is 250 nM. `FC(F)(F)c1ccc(Nc2nc(-c3ccccn3)nc3c2CCN(c2ncccc2C(F)(F)F)CC3)cc1` [Example 172, 2-Pyridin-2-yl-N-[4-(trifluoromethyl)phenyl]-7-[3-(trifluoromethyl)pyridin-2-yl]-6,7,8,9-tetrahydro-5H-pyrimido[4,5-d]azepin-4-aminele 1 trifluoroacetic acid salt]: the half-maximal inhibitory concentration (IC50) came out at 130 nM. As for `CN(C)c1nc2c(c(Nc3ccc4c(c3)OCCO4)n1)CCN(c1ncccc1C(F)(F)F)CC2` [Example 68B, N^4-(2,3-Dihydro-benzo[1,4]dioxin-6-yl)-N^2,N^2-dimethyl-7-(3-trifluoromethyl-pyridin-2-yl)-6,7,8,9-tetrahydro-5H-pyrimido[4,5-d]azepine-2,4-diamine trifluoroacetic acid salt], the IC50 worked out at 3200 nM. Take `Cc1cc(C(F)(F)F)ccc1Nc1nc(OC(C)C2CCCCC2)nc2c1CCN(c1ncccc1C(F)(F)F)CC2` (centres unmarked) [Example 309, 2-[(1-Cyclohexylethyl)oxy]-N-[2-methyl-4-(trifluoromethyl)phenyl]-7-[3-(trifluoromethyl)pyridin-2-yl]-6,7,8,9-tetrahydro-5H-pyrimido[4,5-d]azepin-4-amine]: the IC50 is 1420 nM. `CN1CCC(C)(C)c2ccc(Nc3nc(SCc4ccccc4)nc4c3CCN(c3ncccc3C(F)(F)F)CC4)cc21` [Example 370, 2-[(Phenylmethyl)sulfanyl]-7-[3-(trifluoromethyl)pyridin-2-yl]-N-(1,4,4-trimethyl-1,2,3,4-tetrahydroquinolin-7-yl)-6,7,8,9-tetrahydro-5H-pyrimido[4,5-d]azepin-4-amine]: the IC50 amounted to 2610 nM. For `CC(C)(C)c1ccc(Nc2nc(N[C@@H]3CCOC3)nc3c2CCN(c2ncccc2C(F)(F)F)CC3)cc1` [Example 264, N^4-[4-(1,1-Dimethylethyl)phenyl]-N^2-[(3R)-tetrahydrofuran-3-yl]-7-[3-(trifluoromethyl)pyridin-2-yl]-6,7,8,9-tetrahydro-5H-pyrimido[4,5-d]azepine-2,4-diamine], the 50% inhibitory concentration (IC50) is 1300 nM. Regarding `FC(F)(F)c1ccc(Nc2nc(N3CCOCC3)nc3c2CCN(c2ncccc2C(F)(F)F)CC3)cc1` [Example 40A, [2-Morpholin-4-yl-7-(3-trifluoromethyl-pyridin-2-yl)-6,7,8,9-tetrahydro-5H-pyrimido[4,5-d]azepin-4-yl]-(4-trifluoromethyl-phenyl)-amine hydrochloride salt], the 50% inhibitory concentration (IC50) (hydrochloride salt) was found to be […]. As for `CC(C)c1nc2c(c(Nc3ccc(N)cc3)n1)CCN(c1ncccc1C(F)(F)F)CC2` [Example 198, N-{2-(1-Methylethyl)-7-[3-(trifluoromethyl)pyridin-2-yl]-6,7,8,9-tetrahydro-5H-pyrimido[4,5-d]azepin-4-yl}benzene-1,4-diamine trifluoroacetic acid salt], the IC50 worked out at 9160 nM. As for `CC(C)c1nc2c(c(Nc3ccc(S(=O)(=O)C(F)(F)F)cc3)n1)CCN(c1ncccc1C(F)(F)F)CC2` [Example 101B, [2-Isopropyl-7-(3-trifluoromethyl-pyridin-2-yl)-6,7,8,9-tetrahydro-5H-pyrimido[4,5-d]azepin-4-yl]-(4-trifluoromethanesulfonyl-phenyl)-amine trifluoroacetic acid salt], the IC50 turned out to be 990 nM. Still for that read-out and setting: with `CC(C)Sc1nc2c(c(Nc3ccc(C(F)(F)F)cc3)n1)CCN(c1ncccc1C(F)(F)F)CC2` [Example 355, 2-[(1-Methylethyl)sulfanyl]-N-[4-(trifluoromethyl)phenyl]-7-[3-(trifluoromethyl)pyridin-2-yl]-6,7,8,9-tetrahydro-5H-pyrimido[4,5-d]azepin-4-amine] the figure was 60 nM. Turning to `Cc1cc(C(F)(F)F)ccc1Nc1nc(Sc2ccccc2)nc2c1CCN(c1ncccc1C(F)(F)F)CC2` [Example 351, N-[2-Methyl-4-(trifluoromethyl)phenyl]-2-(phenylsulfanyl)-7-[3-(trifluoromethyl)pyridin-2-yl]-6,7,8,9-tetrahydro-5H-pyrimido[4,5-d]azepin-4-amine], the IC50 was 750 nM. On the same count and under the same terms, with `CC(C)c1ccc(Nc2nc(C(C)C)nc3c2CCN(c2ncccc2C(F)(F)F)CC3)cc1` [Example 137, 2-(1-Methylethyl)-N-[4-(1-methylethyl)phenyl]-7-[3-(trifluoromethyl)pyridin-2-yl]-6,7,8,9-tetrahydro-5H-pyrimido[4,5-d]azepin-4-amine] the figure was 60 nM.

Regarding `CN1CCCc2ccc(Nc3nc(OC4CCCC4)nc4c3CCN(c3ncccc3C(F)(F)F)CC4)cc21` [Example 324, 2-(Cyclopentyloxy)-N-(1-methyl-1,2,3,4-tetrahydroquinolin-7-yl)-7-[3-(trifluoromethyl)pyridin-2-yl]-6,7,8,9-tetrahydro-5H-pyrimido[4,5-d]azepin-4-amine], the IC50 came to 100 nM. Still for that read-out and setting: with `CC(C)c1nc2c(c(Nc3ccc(Cl)c(Cl)c3)n1)CCN(c1ncccc1C(F)(F)F)CC2` [Example 109, (3,4-Dichloro-phenyl)-[2-isopropyl-7-(3-trifluoromethyl-pyridin-2-yl)-6,7,8,9-tetrahydro-5H-pyrimido[4,5-d]azepin-4-yl]-amine] the figure was 580 nM; with `CC(C)(C)c1ccc(Nc2nc(N3CCCCC3)nc3c2CCN(c2ncccc2C(F)(F)F)CC3)cc1` [Example 42, (4-tert-Butyl-phenyl)-[2-piperidin-1-yl-7-(3-trifluoromethyl-pyridin-2-yl)-6,7,8,9-tetrahydro-5H-pyrimido[4,5-d]azepin-4-yl]-amine], 49 nM; with `Cc1cc(C(F)(F)F)ccc1Nc1nc(OC2CCOCC2)nc2c1CCN(c1ncccc1C(F)(F)F)CC2` [Example 312, N-[2-Methyl-4-(trifluoromethyl)phenyl]-2-(tetrahydro-2H-pyran-4-yloxy)-7-[3-(trifluoromethyl)pyridin-2-yl]-6,7,8,9-tetrahydro-5H-pyrimido[4,5-d]azepin-4-amine], 450 nM. As for `FC(F)(F)c1cccnc1N1CCc2nc(N3CCCCCC3)nc(NCc3ccc(Cl)c(Cl)c3)c2CC1` [Example 255, 2-Azepan-1-yl-N-[(3,4-dichlorophenyl)methyl]-7-[3-(trifluoromethyl)pyridin-2-yl]-6,7,8,9-tetrahydro-5H-pyrimido[4,5-d]azepin-4-amine], the half-inhibitory concentration (IC50) was determined as 700 nM. On the same count and under the same terms, with `COCCNc1nc2c(c(Nc3ccc(C(F)(F)F)cc3)n1)CCN(c1ncccc1C(F)(F)F)CC2` [Example 213, N^2-[2-(Methyloxy)ethyl]-N^4-[4-(trifluoromethyl)phenyl]-7-[3-(trifluoromethyl)pyridin-2-yl]-6,7,8,9-tetrahydro-5H-pyrimido[4,5-d]azepine-2,4-diamine trifluoroacetic acid salt] the figure was 110 nM. Take `CC(C)(C)c1ccc(Nc2nc(C3CC3)nc3c2CCN(c2ncccc2C(F)(F)F)CC3)cc1` [Example 3, (4-tert-Butyl-phenyl)-[2-cyclopropyl-7-(3-trifluoromethyl-pyridin-2-yl)-6,7,8,9-tetrahydro-5H-pyrimido[4,5-d]azepin-4-yl]-amine]: the IC50 was determined as 95 nM. For the molecule `CN1CCC(C)(C)c2ccc(Nc3nc(N4CCCCC4)nc4c3CCN(c3ncccc3C(F)(F)F)CC4)cc21` [Example 164, [2-Piperidin-1-yl-7-(3-trifluoromethyl-pyridin-2-yl)-6,7,8,9-tetrahydro-5H-pyrimido[4,5-d]azepin-4-yl]-(1,4,4-trimethyl-1,2,3,4-tetrahydro-quinolin-7-yl)-amine hydrochloride salt], the IC50 was 20 nM. On the same count and under the same terms, the same measure for `CC(C)c1nc2c(c(Nc3ccc4c(c3)N(C)CCC4(C)C)n1)CCN(c1ncccc1C(F)(F)F)CC2` [Example 162, [2-Isopropyl-7-(3-trifluoromethyl-pyridin-2-yl)-6,7,8,9-tetrahydro-5H-pyrimido[4,5-d]azepin-4-yl]-(1,4,4-trimethyl-1,2,3,4-tetrahydro-quinolin-7-yl)-amine]: 30 nM; for `FC(F)(F)c1cccnc1N1CCc2nc(N3CCCCC3)nc(NCc3ccc(Cl)c(Cl)c3)c2CC1` [Example 251, N-[(3,4-Dichlorophenyl)methyl]-2-piperidin-1-yl-7-[3-(trifluoromethyl)pyridin-2-yl]-6,7,8,9-tetrahydro-5H-pyrimido[4,5-d]azepin-4-amine]: 1980 nM.
